# Test results taken from article PMC8124228, “New Hybrids Based on Curcumin and Resveratrol: Synthesis, Cytotoxicity and Antiproliferative Activity against Colorectal Cancer Cells” (Molecules, 2021).
# Read-outs that look alike come from different tables or passages of the source.
# What was measured:
# tubulin polymerization [1] = system: tubulin polymerization; set-up: method as in PMID 26515041; details: evaluated in HCT-116 cells; cited from earlier work
# [2] = system: MDA-MB-231/ATCC, PC-3, SNB-75, RPMI-8226, MOLT-4, CCRF-CEM and HS 578T cell lines; set-up: method as in doi:10.1007/s00044-014-1146-2; details: mean over cell lines; cited from earlier work
# SW480 cells = system: SW480 cells; set-up: method as in doi:10.1007/s00044-018-2202-0; details: SW480, 48 h; cited from earlier work
# tubulin polymerization [3] = details: cited from earlier work
# HepG2 cell line = details: cited from earlier work
# B16-F10 cell line = details: cited from earlier work
# A549 cell line = details: cited from earlier work
# SW620 cell line = assay: Antiproliferative activity (SRB, 2-8 days), SW620; type: cell-based, human; details: for viability at 10 µM / viability at 160 µM: Homo sapiens, vehicle control = 100%, read-out: Viability (%) ± SE; for viability at 10 µM: SW620, 10 µM; for viability at 160 µM: SW620, 160 µM
# Method: (§1) With the aim of testing the antiproliferative effect of the most cytotoxic and selective hybrids (3e and 3i for SW480 and 3a, 3e and 3k for SW620), they were analyzed through a longer period. According to the results in comparison with the control, it was observed that the activity was time- and concentration-dependent, as evidenced by the decrease in cell viability in the highest concentrations (Table 2). […] Similar results were presented in a previous investigation by Herrera-R et al. (2018), reporting the antiproliferative effect and morphological changes in SW480 cells after treatment with different hybrids using a stilbene moiety, which highlights the potential of this scaffold in the approach to design molecules with potential activity against CRC.
# (§2) Briefly, cells were seeded to a final density of 2500 cells/well in 96-well tissue culture plates and incubated in the same conditions described for cytotoxicity. […] Culture media was replaced every 48 h. After each incubation time, cells were fixed, stained and read as previously described for this technique.
# [4] = system: non-malignant CHO-K1 cell line; assay: Sulforhodamine B (SRB) cytotoxicity assay, non-malignant cells; type: cell-based; details: Cricetulus griseus, mean ± SE
# Method: (§3) To determine the cytotoxic effect of the synthesized hybrids, they were evaluated against SW480 human colon adenocarcinoma cells, its metastatic derivative SW620 and the non-malignant CHO-K1 cell line, through the sulforhodamine B assay. In this experiment, 5-FU was also included as the reference drug, as well as the parental subunits (curcumin and resveratrol) and the equimolar mixture of these. Cytotoxicity was reported as 50% inhibitory concentration (IC50 values).
# (§4) Biological assays were performed using an adenocarcinoma colon cancer cell line (SW480), its metastatic derivative (SW620) and non-malignant cells (CHO-K1). These were obtained from The European Collection of Authenticated Cell Cultures (ECACC, England) and maintained in Dulbecco’s Modified Eagle Medium, supplemented with 10% heat-inactivated (56 °C) horse serum, 1% penicillin/streptomycin and 1% non-essential amino acids (Gibco Invitrogen, Carlsbad, USA). For all experiments, horse serum was reduced to 3%, and the medium was supplemented with […], 5 ng/mL selenium and […] (ITS-defined medium; Gibco, Invitrogen, Carlsbad, CA, USA).
# (§5) Cytotoxicity of the synthesized hybrids, lead and reference compounds was evaluated through Sulforhodamine B (SRB) assay, a colorimetric test that is based on staining of total cellular protein of adherent cells. Cells were seeded to a final density of 20,000 cells/well in 96-well tissue culture plates and incubated at 37 °C in a humidified atmosphere at 5% CO2. All cultures were allowed to grow for 24 h, and afterward they were treated with DMSO (vehicle control 1%) or increasing concentrations (0.01–200 µM) of the synthesized hybrids, as well as curcumin and resveratrol (lead compounds), the equimolar mixture of these and 5-fluorouracil (5-FU; the standard drug). After treatment, cells were fixed with trichloroacetic acid (50% v/v) (MERCK) for a period of 1 h at 4 °C. Cell proteins were determined by staining with 0.4% (w/v) SRB (Sigma-Aldrich, United States), and then they were washed with 1% acetic acid for the removal of unbound SRB and left for air-drying. Protein bound SRB was solubilized in 10 mM Tris-base and the absorbance was measured at 492 nm in a microplate reader (Mindray MR-96A). All experiments were performed at least in triplicate.
# [5] = system: SW620 cells (metastatic derivative of SW480); assay: Sulforhodamine B (SRB) cytotoxicity assay, SW620; type: cell-based, human; details: for SI (selectivity index): IC50 CHO-K1 / IC50 SW620; for IC50: Homo sapiens, SW-620, SRB, mean ± SE
# Method: as §3, §4, §5
# SW480 cell line = assay: Antiproliferative activity (SRB, 2-8 days), SW480; type: cell-based; details: Homo sapiens, vehicle control = 100%, read-out: Viability (%) ± SE; for viability at 10 µM: SW480, 10 µM; for viability at 160 µM: SW480, 160 µM
# Method: as §1, §2
# [6] = system: SW480 human colon adenocarcinoma cells; assay: Sulforhodamine B (SRB) cytotoxicity assay, SW480; type: cell-based; details: for SI (selectivity index): IC50 CHO-K1 / IC50 SW480; for IC50: SRB, mean ± SE
# Method: as §3, §4, §5
# [7] = system: LNCaP (human androgen-dependent prostate cancer) cell line; set-up: method as in PMID 26341135; details: cited from earlier work
# SiHa human cancer cells = system: SiHa human cancer cells; set-up: method as in doi:10.1007/s00044-016-1514-1; details: cited from earlier work
# [8] = system: PANC-1 human cancer cells; set-up: method as in doi:10.1007/s00044-016-1514-1; details: cited from earlier work
# [9] = system: MDA-MB-231 human cancer cells; set-up: method as in doi:10.1007/s00044-016-1514-1; details: cited from earlier work
# [10] = system: SKOV-3 ovarian carcinoma cells; set-up: method as in PMID 26174555; details: cited from earlier work
# [11] = system: H-460 human lung cancer cells; set-up: method as in PMID 26174555; details: cited from earlier work
# [12] = system: A549 human lung cancer cells; set-up: method as in PMID 26174555; details: cited from earlier work
# [13] = system: MCF-7 human breast cancer cell line; set-up: method as in PMID 26174555; details: cited from earlier work
# [14] = Homo sapiens, SW480, 24 h, 24 h
compound,measurement,setting,value
COc1cc(/C=C/C(=O)/C=C/c2cc(OC)c(OC)c(OC)c2)ccc1CCc1cn(CCN2C(=O)C(=O)c3ccccc32)nn1,inhibition of tubulin polymerization at (concentration),tubulin polymerization [1],1.2 µM
COc1ccc(C2NC(=O)NC(/C=C/c3ccc(O)c(OC)c3)=C2C(=O)/C=C/c2ccc(O)c(OC)c2)cc1 (centres unmarked) [Curcumin–monastrol hybrid],mean growth percentage (GP),[2],88.90
COc1cc(/C=C/c2ccc3ccc(=O)oc3c2)cc(OC)c1O [Figure 1H],IC50,SW480 cells,1.01 µM
COc1ccc(/C=C/c2cc(OC)cc(OC)c2/C=C/C(=O)c2ccc(C)c(C)c2)cc1 [Figure 1I],tubulin polymerization inhibitory activity at (concentration),tubulin polymerization [3],2.6 µg/mL
same,IC50,HepG2 cell line,0.2 µg/mL
same,IC50,B16-F10 cell line,0.1 µg/mL
same,IC50,A549 cell line,1.4 µg/mL
"COc1ccc(/C=C/c2ccc(C(=O)/C=C/c3ccc(O)c(OC)c3)cc2)c(OC)c1 [Hybrid 3e, (E)-1-(4-((E)-2,4-Dimethoxystyryl)phenyl)-3-(4-hydroxy-3-methoxyphenyl)prop-2-en-1-one]",viability at 10 µM,"SW620 cell line; SW-620, 48 h, day 2",80.6 ± 4%
same,viability at 160 µM,"SW620 cell line; SW-620, 48 h, day 2",5 ± 1%
same,viability at 10 µM,"SW620 cell line; SW-620, 96 h, day 4",11.1 ± 4.2%
same,viability at 160 µM,"SW620 cell line; SW-620, 96 h, day 4",4.1%
same,viability at 10 µM,"SW620 cell line; SW-620, 144 h, day 6",4.1 ± 2.2%
same,viability at 160 µM,"SW620 cell line; SW-620, 144 h, day 6",0%
same,viability at 10 µM,"SW620 cell line; SW-620, 192 h, day 8",0.6 ± 0.5%
same,viability at 160 µM,"SW620 cell line; SW-620, 192 h, day 8",0%
same,reduction in viability,"SW620 cell line; SW620, after two days of treatment, concentrations higher than 10 µM",significant reduction in viability
same,IC50,[4]; 24 h,100.6 ± 1 µM
same,IC50,[4]; 48 h,43.3 ± 6.84 µM
same,SI (selectivity index),[5]; 24 h,1.81
same,IC50,[5]; 24 h,55.5 ± 8 µM
same,IC50,[5]; 48 h,20.4 ± 3.51 µM
same,viability at 10 µM,"SW480 cell line; 48 h, day 2",53.9 ± 5.3%
same,viability at 160 µM,"SW480 cell line; 48 h, day 2",32.9 ± 1.3%
same,viability at 10 µM,"SW480 cell line; 96 h, day 4",2.3 ± 0.3%
same,viability at 160 µM,"SW480 cell line; 96 h, day 4",0.9 ± 0.2%
same,viability at 10 µM,"SW480 cell line; 144 h, day 6",3.8 ± 2.7%
same,viability at 160 µM,"SW480 cell line; 144 h, day 6",0.5 ± 0.2%
same,viability at 10 µM,"SW480 cell line; 192 h, day 8",5.2 ± 0.3%
same,viability at 160 µM,"SW480 cell line; 192 h, day 8",0.1 ± 0.1%
same,SI (selectivity index),[6]; 24 h,1.85
same,IC50,[6]; [14],54.4 ± 6.93 µM
same,melting point,,78 to 82 °C
"COc1cc(/C=C/C(=O)c2ccc(/C=C/c3ccc(OC)c(OC)c3)cc2)ccc1O [Hybrid 3i, (E)-1-(4-((E)-3,4-dimethoxystyryl)phenyl)-3-(4-hydroxy-3-methoxyphenyl)prop-2-en-1-one]",IC50,[4]; 24 h,104 ± 5.03 µM
same,IC50,[4]; 48 h,28.3 ± 9.3 µM
same,SI (selectivity index),[5]; 24 h,1.32
same,SI (selectivity index),[5]; 48 h,0.96
same,IC50,[5]; 24 h,78.9 ± 6.2 µM
same,IC50,[5]; 48 h,29.3 ± 4.73 µM
same,viability at 10 µM,"SW480 cell line; 48 h, day 2",54.4 ± 7.4%
same,viability at 160 µM,"SW480 cell line; 48 h, day 2",30.3 ± 8.5%
same,viability at 10 µM,"SW480 cell line; 96 h, day 4",2 ± 0.2%
same,viability at 160 µM,"SW480 cell line; 96 h, day 4",1.7 ± 0.1%
same,viability at 10 µM,"SW480 cell line; 144 h, day 6",1.6 ± 0.2%
same,viability at 160 µM,"SW480 cell line; 144 h, day 6",0.1 ± 0.1%
same,viability at 10 µM,"SW480 cell line; 192 h, day 8",1.6 ± 0.3%
same,viability at 160 µM,"SW480 cell line; 192 h, day 8",0.2 ± 0.1%
same,SI (selectivity index),[6]; 24 h,2.09
same,IC50,[6]; 48 h,11.5 ± 2.78 µM
same,IC50,[6]; [14],49.7 ± 4.56 µM
same,IC50,"[6]; Homo sapiens, SW480, 48 h, 48 h",11.5 to 29.2 µM
same,melting point,,67 to 70 °C
CCn1ccnc1/C=C/C(=O)/C=C/c1coc2ccccc2c1=O [Hybrid curcum–imidazol],IC50,[7],1 µM
COc1cc(/C=C/c2ccc(NC(=O)CSc3nnc(-c4cccc(C(F)(F)F)c4)o3)cc2)cc(OC)c1 [Resveratrol–oxadiazole hybrid F],GI50,SiHa human cancer cells,< 0.1 µM
same,GI50,[8],< 0.1 µM
same,GI50,[9],< 0.1 µM
C#CCn1c(=O)c(/C=C/C(=O)CC(=O)/C=C/c2ccc(O)c(OC)c2)cc2cc(C)ccc21 [curcumin–quinolone hybrid],IC50,[10],12.8 µM
same,IC50,[11],21.8 µM
same,IC50,[12],23.9 µM
same,IC50,[13],36.2 µM
